Data: article PMC9997068, “Impact of Gastric pH Variations on the Release of Amorphous Solid Dispersion Formulations Containing a Weakly Basic Drug and Enteric Polymers” (Molecular Pharmaceutics, 2023)

Test: Drug crystallization in media of different pH (PXRD)
Type: physicochemical
Procedure: PXRD was used to confirm the amorphous state of freshly prepared DLM ASDs and to detect drug crystallization in solution. […] Crystallization of the DLM salt was evaluated at predetermined time points. Drug crystallization in ASDs upon acidic incubation was conducted at the same drug concentration as in the dissolution testing: 20 mg of ASD powder was added to 50 mL of acidic solutions at pH 1.6, 3.0, or 5.0 and kept stirring at 300 rpm, 37 °C for 1 h.
Undissolved particles were collected by vacuum filtration and analyzed using a Rigaku Smartlab diffractometer (Rigaku Americas, The Woodlands, TX) equipped with a Cu–Kα radiation source and a D/tex ultradetector. Diffractograms were acquired with a scanning speed of 4°/min (4–40° 2θ) and 0.02° step size. The voltage and current were 40 kV and 44 mA, respectively.

**Q.** For `C[C@]1(COc2ccc(N3CCC(Oc4ccc(OC(F)(F)F)cc4)CC3)cc2)Cn2cc([N+](=O)[O-])nc2O1.O=S(=O)(O)CCS(=O)(=O)O` [DLM edisylate], which pHmax (crystallization to the free base observed at all pHs investigated) is on record?
**A.** < 1.6

**Q.** What about the “immersion time at which evidence of crystalline free base was seen” value (neat amorphous salt in suspension, 37 °C) of the same compound?
**A.** 5 min

**Q.** And the “crystallization of neat amorphous salt” value (pH 1.6 and 3.0)?
**A.** rapid

**Q.** What about the “rate of crystallization of neat amorphous salt” value (pH 5.0 and 6.5) of the same compound?
**A.** much reduced
